Data: PubChem BioAssay AID1845197 (Molecular Pharmacology Branch, DTP, NCI, 2023)

System: 349418-098-R tumor spheroid viability
Assay: Anticancer human tumor 349418-098-R patient-derived lung adenocarcinoma cell line growth inhibition
Settings: spheroids with HUVEC and MSC; for viability, T/C: stronger effect = lower value
How it was run: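 Single agents and combinations were tested on spheroids built from tumor cells plus HUVEC and hMSC, at half-log dilutions starting at or near clinical Cmax, else 10 microM; final DMSO 0.25% (v/v).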

[1] = curve of first compound, second compound 30 pM
[2] = curve of first compound, second compound 94.9 pM
[3] = curve of first compound, second compound 0.0003 µM
[4] = curve of first compound, second compound 0.000949 µM
[5] = curve of first compound, second compound 0.003 µM
[6] = second compound 30 pM, first compound 0.00949 µM
[7] = second compound 30 pM, first compound 0.03 µM
[8] = second compound 30 pM, first compound 0.0949 µM
[9] = second compound 30 pM, first compound 0.3 µM
[10] = second compound 30 pM, first compound 0.949 µM
[11] = second compound 30 pM, first compound 3 µM
[12] = second compound 94.9 pM, first compound 0.00949 µM
[13] = second compound 94.9 pM, first compound 0.03 µM
[14] = second compound 94.9 pM, first compound 0.0949 µM
[15] = second compound 94.9 pM, first compound 0.3 µM
[16] = second compound 94.9 pM, first compound 0.949 µM
[17] = second compound 94.9 pM, first compound 3 µM
[18] = second compound 0.0003 µM, first compound 0.00949 µM
[19] = second compound 0.0003 µM, first compound 0.03 µM
[20] = second compound 0.0003 µM, first compound 0.0949 µM
[21] = second compound 0.0003 µM, first compound 0.3 µM
[22] = second compound 0.0003 µM, first compound 0.949 µM
[23] = second compound 0.0003 µM, first compound 3 µM
[24] = second compound 0.000949 µM, first compound 0.00949 µM
[25] = second compound 0.000949 µM, first compound 0.03 µM
[26] = second compound 0.000949 µM, first compound 0.0949 µM
[27] = second compound 0.000949 µM, first compound 0.3 µM
[28] = second compound 0.000949 µM, first compound 0.949 µM
[29] = second compound 0.000949 µM, first compound 3 µM
[30] = second compound 0.003 µM, first compound 0.00949 µM
[31] = second compound 0.003 µM, first compound 0.03 µM
[32] = second compound 0.003 µM, first compound 0.0949 µM
[33] = second compound 0.003 µM, first compound 0.3 µM
[34] = second compound 0.003 µM, first compound 0.949 µM
[35] = second compound 0.003 µM, first compound 3 µM
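Note: spheroids exposed to compound for 7 days before measurement.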
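Throughout, for viability, T/C: percent of vehicle control viability with 100% = DMSO-treated spheroids.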

Structure (SMILES) | IC50 [1] [nM] | IC50 [2] [nM] | IC50 [3] [nM] | IC50 [4] [nM] | IC50 [5] [nM] | viability, T/C [6] [%] | viability, T/C [7] [%] | viability, T/C [8] [%] | viability, T/C [9] [%] | viability, T/C [10] [%] | viability, T/C [11] [%] | viability, T/C [12] [%] | viability, T/C [13] [%] | viability, T/C [14] [%] | viability, T/C [15] [%] | viability, T/C [16] [%] | viability, T/C [17] [%] | viability, T/C [18] [%] | viability, T/C [19] [%] | viability, T/C [20] [%] | also measured
Cc1sc2c(c1C)C(c1ccc(Cl)cc1)=NC(CC(=O)Nc1ccc(O)cc1)c1nnc(C)n1-2 (stereo unspecified) + COc1cc2c(cc1O)CCNC21CSC2c3c(OC(C)=O)c(C)c4c(c3C(COC1=O)N1C(O)C3Cc5cc(C)c(OC)c(O)c5C(C21)N3C)OCO4 | 142 | 104 | 39.2 | < 9.49 | < 9.49 | 97.4 | 101 | 63.3 | 22.3 | 3.92 | 0.75 | 99.1 | 104 | 53.6 | 7.33 | 1.23 | 0.57 | 87.3 | 56 | 28.3 | viability, T/C [21]: 4.02%; viability, T/C [22]: 0.43%; viability, T/C [23]: 0.38%; viability, T/C [24]: 0.25%; viability, T/C [25]: 0.35%; viability, T/C [26]: 0.19%; viability, T/C [27]: 0.18%; viability, T/C [28]: 0.18%; viability, T/C [29]: 0.57%; viability, T/C [30]: 1.49%; viability, T/C [31]: 1.62%; viability, T/C [32]: 1.47%; viability, T/C [33]: 1.59%; viability, T/C [34]: 2.52%; viability, T/C [35]: 3.49%
Cn1nnc2c(C(N)=O)ncn2c1=O | – | – | – | – | – | – | – | – | – | – | – | – | – | – | – | – | – | – | – | – | viability, T/C (compound 1 µM): 101% [middle of 10 runs]; viability, T/C (compound 3.16 µM): 101% [middle of 10 runs]; viability, T/C (compound 10 µM): 100% [middle of 10 runs]; viability, T/C (compound 31.6 µM): 102% [middle of 10 runs]; viability, T/C (compound 100 µM): 103% [middle of 10 runs]; IC50 (compound alone, run of 10/17/2019): > 100000 nM
CNCc1ccc(-c2cc(-c3nc(-c4ccc(S(=O)(=O)C(C)C)cc4)cnc3N)on2)cc1 + COc1cc2c(cc1O)CCNC21CSC2c3c(OC(C)=O)c(C)c4c(c3C(COC1=O)N1C(O)C3Cc5cc(C)c(OC)c(O)c5C(C21)N3C)OCO4 | 448 | 202 | 162 | < 9.49 | < 9.49 | 105 | 91.3 | 87.8 | 69.6 | 14.5 | 5.77 | 97 | 97.5 | 85.4 | 31.1 | 10.2 | 3.32 | 91.6 | 93.5 | 79.5 | viability, T/C [21]: 15.6%; viability, T/C [22]: 5.43%; viability, T/C [23]: 2.26%; viability, T/C [24]: 0.44%; viability, T/C [25]: 0.78%; viability, T/C [26]: 0.51%; viability, T/C [27]: 0.68%; viability, T/C [28]: 0.41%; viability, T/C [29]: 0.11%; viability, T/C [30]: 1.46%; viability, T/C [31]: 1.27%; viability, T/C [32]: 0.93%; viability, T/C [33]: 1.07%; viability, T/C [34]: 1.05%; viability, T/C [35]: 0.22%
